Measured values reported in patent publication US10301286B2, “Piperazine derivative” (Astellas Pharma Inc., priority 2015, dated 2019).
Structures can show the parent of a compound that is named as a salt.

Key:
human MC4 receptor = human MC4 receptor (Homo sapiens (Human), UniProt P32245); test: Human MC receptor activation, cAMP production in cells expressing human MC4 receptor; assay type: cell-based; conditions: FreeStyle 293-F cells transiently expressing human MC4 receptor, α-MSH maximum = 100%
Text: (§1) (1) Construction of Human MC Receptor-Expressing Vector
(§2) A human MC4 receptor gene (GenBank Accession No.: NM_005912.2), a human MC1 receptor gene (GenBank Accession No.: NM_002386.3), or a human MC3 receptor gene (GenBank Accession No.: NM_019888.3) was introduced into an expression vector pcDNA™ 3.1/V5-His TOPO (registered trademark) (Thermo Fisher Scientific Inc.).
(§3) (2) Construction of Cells Transiently Expressing Human MC Receptor
(§4) An expression vector for a human MC4, MC1, or MC3 receptor was introduced into FreeStyle™ 293-F cell (Thermo Fisher Scientific Inc., product number: R790-07). For the introduction, electroporation was employed. That is, 1×10^7 FreeStyle™ 293-F cell were suspended in 80 μL of an electroporation buffer (Thermo Fisher Scientific Inc., product number: B201-100), and 20 μg of the expression vector was added thereto. The resultant was put into a cuvette (OC-100 Processing Assembly, MaxCyte, Inc.) and electroporated with MaxCyte SIX (registered trademark) (MaxCyte, Inc.). The cells were cultured over one day, suspended in a Cell Banker (registered trademark) 1 (JUJI FIELD Inc.), product number: BLC-1), and stored frozen until their use.
(§5) (3) Measurement of Amount of cAMP Produced
(§6) Measurement was carried out by using a LANCE (registered trademark) Ultra cAMP Kit (PerkinElmer, Inc.) in accordance with the attached instructions. That is, after dissolution in DMSO, the test compound (a final concentration of 1 pM to 30 μM) diluted with an assay buffer (Hank's balanced salt solution, 5 mM 4-(2-hydroxyethyl)-1-piperazineethanesulfonic acid (HEPES), 0.5 mM 3-isobutyl-1-methylxanthine (IBMX), 0.1% bovine serum albumin, pH 7.4), or α-MSH (Bachem Inc., a final concentration of 1 pM to 30 μM) was added to OptiPlate-384 (PerkinElmer, Inc.). Furthermore, a suspension of cells transiently expressing the human MC4, MC1, or MC3 receptor prepared by using the assay buffer was added thereto at 1,000 cells/well, followed by being left to stand at room temperature for about 1 hour. Thereafter, an Eu-cAMP tracer solution and an ULight™-anti-cAMP solution were added thereto, followed by being left to stand at room temperature for about 1 hour. The amount of cAMP was calculated using EnVision (registered trademark) (PerkinElmer Inc.).
(§7) For the agonistic activity, an efficacy (EC50 (μM)) was calculated by a non-linear regression method with a Sigmoid-Emax model, by defining the maximum reaction with α-MSH as 100% and the reaction with the vehicle alone as 0%, respectively.

human MC3 receptor = human MC3 receptor (Homo sapiens (Human), UniProt P41968); test: Human MC receptor activation, cAMP production in cells expressing human MC3 receptor; assay type: cell-based; conditions: FreeStyle 293-F cells transiently expressing human MC3 receptor, α-MSH maximum = 100%
Text: as §1, §2, §3, §4, §5, §6, §7

human MC1 receptor = human MC1 receptor (Homo sapiens (Human), UniProt Q01726); test: Human MC receptor activation, cAMP production in cells expressing human MC1 receptor; assay type: cell-based; conditions: FreeStyle 293-F cells transiently expressing human MC1 receptor, α-MSH maximum = 100%
Text: as §1, §2, §3, §4, §5, §6, §7

Male SD rats = test: Rat erection-inducing action; assay type: in vivo; conditions: 10 mg/kg intravenously, erections up to one hour after administration, vs vehicle, P<0.05
Procedure: Male SD rats (Charles River Laboratories Japan, Inc.) were used. A test compound (10 mg/kg) or the vehicle (20% dimethyl acetamide, 10% Cremophor (registered trademark), 70% physiological saline) was administered intravenously through the tail vein. After administration, the rats were transferred to transparent observation cages made of plastic to measure the erection times of up to one hour after administration. The measurements were carried out for five groups (3 to 7 animals per group): vehicle groups, Example compound groups (Ex 87, 88, and 89), and THIQ group, which had been known as an MC4 receptor agonist (J. Med. Chem., 45, 4589-4593 (2002)), as a positive control. For a statistical significance test, Dunnett's multiple comparison test was used for the comparison with vehicle control group, and it was determined whether there was an erection-inducing effect with a statistically significant difference (P<0.05).

human MC4 receptor, sequence (P32245 whole entry): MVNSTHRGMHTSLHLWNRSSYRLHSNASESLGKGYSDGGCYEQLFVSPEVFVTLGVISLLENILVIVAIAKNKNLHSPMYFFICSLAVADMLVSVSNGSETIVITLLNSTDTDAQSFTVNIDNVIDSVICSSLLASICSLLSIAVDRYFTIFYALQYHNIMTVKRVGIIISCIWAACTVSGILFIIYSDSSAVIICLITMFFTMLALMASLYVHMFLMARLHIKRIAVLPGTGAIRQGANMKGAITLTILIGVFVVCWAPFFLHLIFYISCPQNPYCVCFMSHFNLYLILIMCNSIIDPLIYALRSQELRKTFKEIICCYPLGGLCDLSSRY
human MC1 receptor, sequence (Q01726 whole entry): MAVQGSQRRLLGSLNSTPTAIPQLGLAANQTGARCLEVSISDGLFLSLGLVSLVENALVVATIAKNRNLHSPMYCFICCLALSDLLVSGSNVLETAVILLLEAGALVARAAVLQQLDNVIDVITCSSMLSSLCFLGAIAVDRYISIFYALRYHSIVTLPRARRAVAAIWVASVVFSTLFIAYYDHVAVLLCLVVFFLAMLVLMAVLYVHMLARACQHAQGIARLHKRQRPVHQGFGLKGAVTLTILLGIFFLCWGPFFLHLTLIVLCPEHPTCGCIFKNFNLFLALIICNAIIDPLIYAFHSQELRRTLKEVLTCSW
human MC3 receptor, sequence (P41968 whole entry): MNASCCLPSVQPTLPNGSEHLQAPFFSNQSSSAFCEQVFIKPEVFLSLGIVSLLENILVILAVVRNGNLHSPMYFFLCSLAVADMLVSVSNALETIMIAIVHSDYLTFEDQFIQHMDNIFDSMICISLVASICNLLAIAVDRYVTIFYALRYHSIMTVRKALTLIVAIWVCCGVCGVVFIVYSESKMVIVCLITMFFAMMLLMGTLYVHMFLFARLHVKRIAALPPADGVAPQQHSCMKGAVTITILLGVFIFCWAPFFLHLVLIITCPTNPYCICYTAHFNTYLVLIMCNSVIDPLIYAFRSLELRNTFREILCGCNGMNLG

Row | EC50 (human MC4 receptor) | EC50 (human MC3 receptor) | EC50 (human MC1 receptor) | SMILES | erection-inducing effect (Male SD rats)
1 | 0.19 µM | – | – | C[C@H]1CN([C@@H](Cc2ccc3c(c2)CCC3)C(=O)O)CCN1C(=O)C1CN(C(C)(C)C)CC1c1ccc2c(c1)CCC2 (stereo partly drawn) [Example 83] | –
2 | 0.19 µM | – | – | C[C@H]1CN([C@@H](Cc2c[nH]c3ccccc23)C(=O)O)CCN1C(=O)[C@@H]1CN(C(C)(C)C)C[C@H]1c1ccc(F)cc1F [Example 53] | –
3 | 0.018 µM | – | – | Cc1ccc(C[C@@H](C(=O)O)N2CCN(C(=O)C3CN(C4(C)CCOCC4)CC3c3ccc(F)cc3F)[C@@H](C)C2)c(F)c1 (stereo partly drawn) [Example 84] | –
4 | 2.4 µM | – | – | CC(C)(C)N1C[C@@H](C(=O)N2CCN([C@@H](Cc3ccc4ccccc4c3)C(=O)O)CC23CC3)[C@H](c2ccc(F)cc2F)C1 [Example 17] | –
5 | 0.53 µM | – | – | C[C@H]1CN([C@@H](Cc2ccc3c(c2)CCC3)C(=O)O)CCN1C(=O)[C@@H]1CN(C2(C)CC2)C[C@H]1c1ccc(Cl)cc1F [Example 68] | –
6 | 0.15 µM | 10 µM | 3.9 µM | C[C@H]1CN([C@@H](Cc2ccc3c(c2)CCC3)C(=O)O)CCN1C(=O)[C@@H]1CN(C(C)(C)CO)C[C@H]1c1ccc(F)cc1F [Example 28] | –
7 | 0.61 µM | – | – | C[C@H]1CN([C@@H](Cc2ccc3c(c2)CCC3)C(=O)O)CCN1C(=O)[C@@H]1CN(c2ccc(C(F)(F)F)nn2)C[C@H]1c1ccc(F)cc1F [Example 33] | –
8 | 4.9 µM | – | – | C[C@@H]1CN(C(=O)[C@@H]2CN(C(C)(C)C)C[C@H]2c2ccc(F)cc2F)CCN1C(Cc1ccc(Cl)c(Cl)c1)C(=O)O (stereo partly drawn) [Example 16] | –
9 | 0.14 µM | – | – | C[C@H]1CN([C@@H](Cc2ccc3c(c2)CCC3)C(=O)O)CCN1C(=O)[C@@H]1CN(C(=O)C2CC2)C[C@H]1c1ccc(F)cc1F [Example 35] | –
10 | 0.062 µM | 11 µM | > 30 µM | C[C@H]1CN([C@@H](Cc2ccc3c(c2)CCC3)C(=O)O)CCN1C(=O)C1CN(C(C)(C)C)CC1c1ccc(C#N)cc1F (stereo partly drawn) [Example 47] | –
11 | 0.49 µM | – | – | C[C@@H]1CN(C(=O)[C@@H]2CN(C(C)(C)C)C[C@H]2c2ccc(F)cc2F)CCN1C(Cc1ccc(Cl)c(Cl)c1)C(=O)O (stereo partly drawn) [Example 15] | –
12 | 1.1 µM | – | – | COc1ccc(C2CN(C(C)(C)C)CC2C(=O)N2CCN([C@@H](Cc3ccc4c(c3)CCC4)C(=O)O)C[C@@H]2C)cc1 (stereo partly drawn) [Example 45] | –
13 | 0.012 µM | 1.8 µM | 1.7 µM | C[C@H]1CN([C@@H](Cc2ccc(C3CC3)cc2F)C(=O)O)CCN1C(=O)[C@@H]1CN(C2CCOCC2)C[C@H]1c1ccc(Cl)cc1F [Example 92] | –
14 | 0.04 µM | 5.3 µM | 2.1 µM | C[C@H]1CN([C@@H](Cc2ccc(OC(F)F)cc2)C(=O)O)CCN1C(=O)[C@@H]1CN(C(C)(C)C)C[C@H]1c1ccc(Cl)cc1F [Example 72] | –
15 | 0.27 µM | – | – | C[C@H]1CN([C@@H](Cc2ccc3c(c2)CCC3)C(=O)O)CCN1C(=O)C1CN(C(C)(C)C)CC1c1ccc(Cl)s1 (stereo partly drawn) [Example 55] | –
16 | 1.7 µM | – | – | C[C@H]1CN([C@@H](Cc2ccc(C#N)cc2)C(=O)O)CCN1C(=O)[C@@H]1CN(C(C)(C)C)C[C@H]1c1ccc(F)cc1F [Example 21] | –
17 | 0.0019 µM | – | – | CC(C)(C)N1C[C@@H](C(=O)N2CCN([C@@H](Cc3ccc4c(c3)CCC4)C(=O)O)C[C@@H]2CC2CC2)[C@H](c2ccc(F)cc2F)C1 [Example 36] | –
18 | – | – | – | O=C(N[C@H](Cc1ccc(Cl)cc1)C(=O)N1CCC(Cn2cncn2)(C2CCCCC2)CC1)[C@H]1Cc2ccccc2CN1 [THIQ, reference compound] | exhibited a significant erection-inducing effect
19 | 0.12 µM | 2.4 µM | 1.9 µM | C[C@H]1CN([C@@H](CC2CCCCC2)C(=O)O)CCN1C(=O)[C@@H]1CN(C(C)(C)C)C[C@H]1c1ccc(Cl)cc1F [Example 57] | –
20 | 0.03 µM | 1 µM | 1.4 µM | Cc1ccc(C[C@@](C)(C(=O)O)N2CCN(C(=O)[C@@H]3CN(C4CCOCC4)C[C@H]3c3ccc(F)cc3F)[C@@H](C)C2)c(F)c1 [Example 74] | –
21 | 0.016 µM | 0.68 µM | 1 µM | Cc1ccc([C@H](C)[C@@H](C(=O)O)N2CCN(C(=O)[C@@H]3CN(C4CCOCC4)C[C@H]3c3ccc(Cl)cc3F)[C@@H](C)C2)cc1 [Example 78] | –
22 | 0.064 µM | – | – | CC[C@H]1CN([C@@H](Cc2ccc3ccccc3c2)C(=O)O)CCN1C(=O)[C@@H]1CN(C(C)=O)C[C@H]1c1ccc(F)cc1F [Example 50] | –
23 | 0.48 µM | > 30 µM | 6.4 µM | C[C@@H]1CN([C@@H](Cc2ccc3ccccc3c2)C(=O)O)C[C@H](C)N1C(=O)[C@@H]1CN(C(C)(C)C)C[C@H]1c1ccc(F)cc1F [Example 6, (2S)-2-[(3R,5S)-4-{[(3S,4R)-1-tert-butyl-4-(2,4-difluorophenyl)pyrrolidin-3-yl]carbonyl}-3,5-dimethylpiperazin-1-yl]-3-(2-naphthyl)propanoic acid dihydrochloride] | –
24 | 0.0051 µM | 2.9 µM | 0.72 µM | COc1ccc(C[C@@H](C(=O)O)N2CCN(C(=O)[C@@H]3CN(C(C)(C)C)C[C@H]3c3ccc(Cl)cc3F)[C@@H](C)C2)c(F)c1 [Example 69] | –
25 | 1 µM | – | – | COC[C@H]1CN([C@@H](Cc2ccc3c(c2)CCC3)C(=O)O)CCN1C(=O)[C@@H]1CN(c2ccc(F)cc2)C[C@H]1c1ccc(F)cc1F [Example 27] | –
26 | 0.0032 µM | 0.58 µM | 15 µM | CN(C)CC[C@H]1CN([C@@H](Cc2ccc3ccccc3c2)C(=O)O)CCN1C(=O)[C@@H]1CN(c2ccc(=O)n(C)n2)C[C@H]1c1ccc(F)cc1F [Example 24] | –
27 | 0.048 µM | 5 µM | – | C[C@H]1CN([C@@H](Cc2ccc(C(F)(F)F)cc2)C(=O)O)CCN1C(=O)[C@@H]1CN(C(C)(C)C)C[C@H]1c1ccc(F)cc1F [Example 13] | –
